Reference: PubChem BioAssay (NCI)
Where “and” joins values, the source holds several entries; their conditions need not be identical. Equal values may be shown once.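 Each compound was tested at five concentrations against cells in 96-well plates for 48 hours. GI50 = concentration required for 50% inhibition of growth. TGI: concentration producing complete growth inhibition.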 *1 amine or outer side, *2 acyl side, *3 side chain or, on linkers, in order; H or OH if unused. Where a SMILES comes first, the peptide text is derived from it. [ ]: non-standard residue; d: D form. The star is where a group is joined. X12 = NCCCCC(N[*:1])C(=O)CN1CCCC1C(=O)[*:2]; Pentadecanoyl = CCCCCCCCCCCCCCC(=O)*

How the values were obtained:
Assay in all cases: NCI anticancer screen, dose series, 48 h
A549 NSCLC = system: A549 NSCLC
HCC-2998 colon = system: HCC-2998 colon
HCT-116 colon = system: HCT-116 colon
NCI-H460 lung = system: NCI-H460 lung
NCI/ADR-RES ovarian = system: NCI/ADR-RES ovarian
OVCAR-4 ovarian = system: OVCAR-4 ovarian
OVCAR-8 ovarian = system: OVCAR-8 ovarian
SF-268 CNS = system: SF-268 CNS
SF-539 CNS = system: SF-539 CNS
T-47D breast = system: T-47D breast

Compound | TGI (A549 NSCLC) [µM] | TGI (HCC-2998 colon) | TGI (HCT-116 colon) [µM] | TGI (NCI-H460 lung) [µM] | TGI (NCI/ADR-RES ovarian) [µM] | TGI (OVCAR-4 ovarian) [µM] | TGI (OVCAR-8 ovarian) | TGI (SF-268 CNS) [µM] | TGI (SF-539 CNS) [µM] | TGI (T-47D breast) [µM] | GI50 (A549 NSCLC) [µM] | GI50 (HCC-2998 colon) [µM] | GI50 (HCT-116 colon) [µM] | GI50 (NCI-H460 lung) [µM] | GI50 (NCI/ADR-RES ovarian) [µM] | GI50 (OVCAR-4 ovarian) [µM] | GI50 (OVCAR-8 ovarian) [µM] | GI50 (SF-268 CNS) [µM] | GI50 (SF-539 CNS) [µM] | GI50 (T-47D breast) [µM]
C=C1CC2C[C@H](OS(=O)(=O)c3ccc(C)cc3)C(C1)N2C (stereo not given in full) | > 100 | > 100 µM | > 100 | > 100 | > 100 | > 100 | > 100 µM | > 100 | > 100 | > 100 |  |  |  |  |  |  |  |  |  | 
COC1OC(=O)C(OC)C(OC)C1OC (stereo not given) | > 100 | > 100 µM | > 100 | > 100 | > 100 | > 100 | > 100 µM | > 100 | > 100 | > 100 |  |  |  |  |  |  |  |  |  | 
Oc1[nH]c2ccccc2c1N=NC(=S)NCc1ccccn1 | 13.7 | 16.5 µM | 15.1 | 11.4 | > 23.3 | 21 | 26.7 µM | 3.84 | 5.06 | 21.4 |  |  |  |  |  |  |  |  |  | 
O=C(O)CCC(NC(=O)/C(=C/c1ccccc1)NC(=O)c1ccccc1)C(=O)O (stereo not given) | > 100 | > 100 µM | > 100 | > 100 | > 100 | > 100 | > 100 µM | > 100 | > 100 | > 100 |  |  |  |  |  |  |  |  |  | 
Cc1nc(C)c(C(=O)NNC(=O)c2ccccc2)cc1C(=O)NNC(=O)c1ccccc1 | > 100 | > 100 µM | > 100 | > 100 | > 100 | > 100 | > 100 µM | > 100 | > 100 | > 100 |  |  |  |  |  |  |  |  |  | 
N#Cc1nc(-c2ccccn2)c(-c2ccccn2)nc1C#N | 19.8 | 17.6 µM | 3.27 | > 35.1 | 8.5 | 12.3 | 15.3 µM | 7.12 | 21.5 | 9.5 |  |  |  |  |  |  |  |  |  | 
Cc1nc2cccc(F)c2c(=O)n1-c1nnc(C2CC2)s1 | > 10 | > 10 µM | > 10 | > 10 | > 10 | > 10 | > 10 µM | > 10 | > 10 | > 10 |  |  |  |  |  |  |  |  |  | 
CC1C/C(=C\c2ccc(O)c(O)c2)C(=O)/C(=C/c2ccc(O)c(O)c2)C1 (stereo not given) | 32.8 | 35.1 µM | 20 | 32.2 | 57.7 | 34.1 | 48.7 µM | 32.1 | 13 | 27.8 |  |  |  |  |  |  |  |  |  | 
Cn1c(-c2cccs2)cc(-c2ccsc2)c1-c1ccsc1 | > 100 | > 100 µM | > 100 | > 100 | > 100 | > 100 | > 100 µM | > 100 | > 100 | 59.6 |  |  |  |  |  |  |  |  |  | 
CC(=O)c1nc(C#N)c(N)o1 | > 100 | > 100 µM | > 100 | > 100 | > 100 | > 100 | > 100 µM | > 100 | > 100 | > 100 |  |  |  |  |  |  |  |  |  | 
CCCCCCCCCCCCCCC(=O)NC(CCCCN)C(=O)CN1CCCC1C(=O)NCC(=O)NC(Cc1ccccc1)C(=O)N1CCCC1C(=O)NC(CO)C(=O)NC(Cc1ccc(O)cc1)C(=O)NC(CCCCN)C(=O)NC(CC(C)C)C(=O)NC(CCCN=C(N)N)C(=O)N1CCCC1C(=O)NCC(N)=O (stereo not given) (Pentadecanoyl-[X12]GFPSYKLRPG-NH2; configuration not given here) | 47.6 | 35.2 µM | 29.6 | 83.7 | 43.7 | 87.2 | 64.4 µM | 52.9 | 59.9 | 40.7 | 23.7 | 17.7 | 14.2 | 28.3 | 20.6 | 34.8 | 27.8 | 22.4 | 27.2 | 17.2
NC(=O)c1nnc2c(F)cccc2c1N | > 100 | > 100 µM | > 100 | > 100 | > 100 | > 100 | > 100 µM | > 100 | > 100 | > 100 |  |  |  |  |  |  |  |  |  | 
O=C(N(C1=CCCC1)N(c1ccccc1)c1ccccc1)C(F)(F)F | 98.4 | 33.8 µM | 63.5 | 35.7 | 87.9 | > 100 | > 100 µM | 48.7 | 45.9 | 65.8 |  |  |  |  |  |  |  |  |  | 
NC(=O)c1ccc(S(=O)(=NS(=O)(=O)c2ccccc2)c2ccc(C(N)=O)cc2)cc1 | > 100 | > 100 µM | > 100 | > 100 | > 100 | > 100 | > 100 µM | > 100 | > 100 | > 100 |  |  |  |  |  |  |  |  |  | 
COc1cc2c3c4[n+](cc2c(OC)c1OC)CCC4CCC3 (stereo not given) | > 100 | > 100 µM | > 100 | > 100 | > 100 | > 100 | > 100 µM | > 100 | > 100 | > 100 |  |  |  |  |  |  |  |  |  | 
C/C(=N\Nc1nc2ccccc2n1C)c1ccncn1 | > 32 | > 100 µM | > 39.8 | > 100 | 0.458 | > 100 | > 40.9 µM | > 100 | 21.8 | > 100 |  |  |  |  |  |  |  |  |  | 
O=C1CSC(c2cc3cc(Br)ccc3nc2Cl)N1c1ccc(F)c(Cl)c1 (stereo not given) | > 50 | > 50 µM | > 50 | > 50 | > 50 | > 50 | > 50 µM | > 50 | > 50 | > 50 |  |  |  |  |  |  |  |  |  | 
CSC(=N/N=C(\C)c1ccc(S(=O)(=O)N(C)c2ccccc2)cc1)SC | > 100 | > 100 µM | > 100 | > 100 | > 100 | > 100 | > 100 µM | > 100 | > 100 | > 100 |  |  |  |  |  |  |  |  |  | 
CC(=O)OC1COC(n2c(N)c(C#N)c(-c3ccccc3)c(C#N)c2=S)C(OC(C)=O)C1OC(C)=O (stereo not given) | > 100 | 90.1 µM and 56.9 µM | > 100 | > 100 | > 100 | > 100 | > 100 µM and 97.3 µM | > 100 | > 100 | > 100 |  |  |  |  |  |  |  |  |  | 
CC(NC1=NCCO1)c1ccco1 (stereo not given) | > 100 | > 100 µM | > 100 | > 100 | > 100 | > 100 | > 100 µM | > 100 | > 100 | > 100 |  |  |  |  |  |  |  |  |  | 
C/C(=C\c1ccccc1)n1c(=O)cc(C)n1C | > 100 | > 100 µM | > 100 | > 100 | > 100 | > 100 | > 100 µM | > 100 | > 100 | > 100 |  |  |  |  |  |  |  |  |  | 
CC(C)c1cc(C(C)C)c(B(c2ccccc2)c2ccccc2)c(C(C)C)c1Br | > 100 | > 100 µM | > 100 | > 100 | > 100 | > 100 | > 100 µM | > 100 | > 100 | > 100 |  |  |  |  |  |  |  |  |  | 
CO/C=C(/C(=O)OC)c1ccccc1[C@H]1C[C@@H]1c1ccccc1 | 83.8 | 76.2 µM | 62.5 | 88.6 | 68.2 | 62.3 | > 100 µM | 82.5 | 42.7 | 63.1 |  |  |  |  |  |  |  |  |  | 
[O-][n+]1cc(SCc2ccccc2)ncc1SCc1ccccc1 | > 10 | > 10 µM | > 10 | > 10 | > 10 | > 10 | > 10 µM | > 10 | > 10 | > 10 |  |  |  |  |  |  |  |  |  | 
O=C1CCc2c(sc3ncnc(Nc4cccc(Br)c4)c23)C1 | 24.5 | 15 µM | 11.7 | 12.9 | > 26.7 | 8.63 | 21.3 µM | 15.2 | 13.2 | 6.17 |  |  |  |  |  |  |  |  |  | 
CCN(CC)CCC1(C(=O)OC)SCCc2ccc(C)cc21 (stereo not given) | > 100 | > 100 µM | > 100 | > 100 | > 100 | > 100 | > 100 µM | > 100 | > 100 | > 100 |  |  |  |  |  |  |  |  |  | 
CC1=CCC(=O)[C@]2(C)C(CC(=O)O)[C@]3(C)C4=C(C)C(c5ccoc5)C[C@@H]4O[C@@H]3[C@H](O)[C@@H]12 (stereo not given in full) | > 100 | > 100 µM | > 100 | > 100 | > 100 | > 100 | > 100 µM | > 100 | > 100 | > 100 |  |  |  |  |  |  |  |  |  | 
CC(=O)N1C(=O)/C(=C\C(=O)c2ccc(Cl)cc2)c2ccccc21 | 22.9 | 31.5 µM | 32.3 | 32.5 | 53.5 | 35.9 | 33.7 µM | 40.5 | 37.2 | 47.6 |  |  |  |  |  |  |  |  |  | 
COc1ccc(C2CCc3c(cnc4nc(N)nc(N)c34)C2)cc1 (stereo not given) | > 100 | > 100 µM | > 100 | > 100 | > 100 | > 100 | > 100 µM | > 100 | > 100 | 95.3 |  |  |  |  |  |  |  |  |  | 
c1ccc2c(c1)[C@@H]1O[C@@H]1[C@@]13O[C@@]21[C@H]1O[C@H]1c1ccccc13 | 47 | 35.1 µM | 25.2 | 74.9 | 39.6 | 26.8 | 39.6 µM | 28.3 | 34.9 | 57.8 |  |  |  |  |  |  |  |  |  | 
